# In PubChem BioAssay AID2060889 (Molecular Pharmacology Branch, DTP, NCI, 2025):
# Test system: LG0567-F671-PDC complex spheroids viability
# Experiment: Anticancer human tumor LG0567-F671-PDC patient-derived lung adenocarcinoma cell line growth inhibition [RAS]
# Settings: for IC50: curve of first compound; for viability, T/C: stronger effect = lower value
# Procedure, shortened: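 Multi-cell-type spheroids: tumor cells plus HUVEC endothelial cells and mesenchymal stem cells. RAS-pathway inhibitors were combined with targeted agents, each dosed in half-log steps down from clinical Cmax, or from 10 microM when Cmax was unknown.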
# 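Further: spheroids exposed to compound for seven days before readout.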
# 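Wherever IC50 is given: luminescence signal used as a proxy for viable cells.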
compound,measurement,setting,value
O=C(c1ccc(F)c(F)c1Nc1ccc(I)cc1F)N1CC(O)([C@@H]2CCCCN2)C1 + CCn1c(-c2cc(N3CCN(C)CC3)cnc2C(C)OC)c2c3cc(ccc31)-c1csc(n1)CC(NC(=O)C1CC1C)C(=O)N1CCCC(N1)C(=O)OCC(C)(C)C2,IC50,second compound 0.000949 µM,< 3.16 nM
same,IC50,second compound 0.003 µM,< 3.16 nM
same,IC50,second compound 0.00949 µM,< 3.16 nM
same,IC50,second compound 0.03 µM,< 3.16 nM
same,IC50,second compound 0.0949 µM,< 3.16 nM
same,IC50,second compound 0.3 µM,< 3.16 nM
same,"viability, T/C","second compound 0.000949 µM, first compound 0.00316 µM",21.6%
same,"viability, T/C","second compound 0.000949 µM, first compound 0.01 µM",13.6%
same,"viability, T/C","second compound 0.000949 µM, first compound 0.0316 µM",8.81%
same,"viability, T/C","second compound 0.000949 µM, first compound 0.1 µM",6.2%
same,"viability, T/C","second compound 0.000949 µM, first compound 0.316 µM",1.53%
same,"viability, T/C","second compound 0.000949 µM, first compound 1 µM",0.54%
same,"viability, T/C","second compound 0.003 µM, first compound 0.00316 µM",8.59%
same,"viability, T/C","second compound 0.003 µM, first compound 0.01 µM",6.83%
same,"viability, T/C","second compound 0.003 µM, first compound 0.0316 µM",4.65%
same,"viability, T/C","second compound 0.003 µM, first compound 0.1 µM",2.36%
same,"viability, T/C","second compound 0.003 µM, first compound 0.316 µM",1.05%
same,"viability, T/C","second compound 0.003 µM, first compound 1 µM",0.48%
same,"viability, T/C","second compound 0.00949 µM, first compound 0.00316 µM",5.45%
same,"viability, T/C","second compound 0.00949 µM, first compound 0.01 µM",3.36%
same,"viability, T/C","second compound 0.00949 µM, first compound 0.0316 µM",2.12%
same,"viability, T/C","second compound 0.00949 µM, first compound 0.1 µM",0.98%
same,"viability, T/C","second compound 0.00949 µM, first compound 0.316 µM",0.46%
same,"viability, T/C","second compound 0.00949 µM, first compound 1 µM",0.34%
same,"viability, T/C","second compound 0.03 µM, first compound 0.00316 µM",3.69%
same,"viability, T/C","second compound 0.03 µM, first compound 0.01 µM",1.98%
same,"viability, T/C","second compound 0.03 µM, first compound 0.0316 µM",1.07%
same,"viability, T/C","second compound 0.03 µM, first compound 0.1 µM",0.6%
same,"viability, T/C","second compound 0.03 µM, first compound 0.316 µM",0.54%
same,"viability, T/C","second compound 0.03 µM, first compound 1 µM",0.95%
same,"viability, T/C","second compound 0.0949 µM, first compound 0.00316 µM",1.82%
same,"viability, T/C","second compound 0.0949 µM, first compound 0.01 µM",1.19%
same,"viability, T/C","second compound 0.0949 µM, first compound 0.0316 µM",0.64%
same,"viability, T/C","second compound 0.0949 µM, first compound 0.1 µM",0.56%
same,"viability, T/C","second compound 0.0949 µM, first compound 0.316 µM",0.47%
same,"viability, T/C","second compound 0.0949 µM, first compound 1 µM",0.32%
same,"viability, T/C","second compound 0.3 µM, first compound 0.00316 µM",1.58%
same,"viability, T/C","second compound 0.3 µM, first compound 0.01 µM",1.13%
same,"viability, T/C","second compound 0.3 µM, first compound 0.0316 µM",0.59%
same,"viability, T/C","second compound 0.3 µM, first compound 0.1 µM",0.43%
same,"viability, T/C","second compound 0.3 µM, first compound 0.316 µM",0.53%
same,"viability, T/C","second compound 0.3 µM, first compound 1 µM",0.43%
Cc1nc(N2CCC3(CC2)COC(C)C3N)c(CO)nc1Sc1ccnc(N)c1Cl (stereo unspecified) + C#Cc1c(F)ccc2cc(O)cc(-c3ncc4c(N5CC6CCC(C5)N6)nc(OCC56CCCN5CC(F)C6)nc4c3F)c12,IC50,second compound 0.0316 µM,65.8 nM
same,IC50,second compound 0.1 µM,< 31.6 nM
same,IC50,second compound 0.316 µM,< 31.6 nM
same,IC50,second compound 1 µM,< 31.6 nM
same,IC50,second compound 3.16 µM,< 31.6 nM
same,IC50,second compound 10 µM,< 31.6 nM
same,"viability, T/C","second compound 0.0316 µM, first compound 0.0316 µM",63.3%
same,"viability, T/C","second compound 0.0316 µM, first compound 0.1 µM",43.5%
same,"viability, T/C","second compound 0.0316 µM, first compound 0.316 µM",26.2%
same,"viability, T/C","second compound 0.0316 µM, first compound 1 µM",19.9%
same,"viability, T/C","second compound 0.0316 µM, first compound 3.16 µM",15.2%
same,"viability, T/C","second compound 0.0316 µM, first compound 10 µM",13.1%
same,"viability, T/C","second compound 0.1 µM, first compound 0.0316 µM",46.1%
same,"viability, T/C","second compound 0.1 µM, first compound 0.1 µM",31.3%
same,"viability, T/C","second compound 0.1 µM, first compound 0.316 µM",21.6%
same,"viability, T/C","second compound 0.1 µM, first compound 1 µM",15.5%
same,"viability, T/C","second compound 0.1 µM, first compound 3.16 µM",12.7%
same,"viability, T/C","second compound 0.1 µM, first compound 10 µM",9.84%
same,"viability, T/C","second compound 0.316 µM, first compound 0.0316 µM",35.3%
same,"viability, T/C","second compound 0.316 µM, first compound 0.1 µM",20.9%
same,"viability, T/C","second compound 0.316 µM, first compound 0.316 µM",18.1%
same,"viability, T/C","second compound 0.316 µM, first compound 1 µM",10.4%
same,"viability, T/C","second compound 0.316 µM, first compound 3.16 µM",8.05%
same,"viability, T/C","second compound 0.316 µM, first compound 10 µM",7.7%
same,"viability, T/C","second compound 1 µM, first compound 0.0316 µM",21%
same,"viability, T/C","second compound 1 µM, first compound 0.1 µM",16.2%
same,"viability, T/C","second compound 1 µM, first compound 0.316 µM",10.6%
same,"viability, T/C","second compound 1 µM, first compound 1 µM",10.3%
same,"viability, T/C","second compound 1 µM, first compound 3.16 µM",4.69%
same,"viability, T/C","second compound 1 µM, first compound 10 µM",3.85%
same,"viability, T/C","second compound 3.16 µM, first compound 0.0316 µM",12.1%
same,"viability, T/C","second compound 3.16 µM, first compound 0.1 µM",8.68%
same,"viability, T/C","second compound 3.16 µM, first compound 0.316 µM",5.69%
same,"viability, T/C","second compound 3.16 µM, first compound 1 µM",4.95%
same,"viability, T/C","second compound 3.16 µM, first compound 3.16 µM",3.57%
same,"viability, T/C","second compound 3.16 µM, first compound 10 µM",2.94%
same,"viability, T/C","second compound 10 µM, first compound 0.0316 µM",7.2%
same,"viability, T/C","second compound 10 µM, first compound 0.1 µM",6.13%
same,"viability, T/C","second compound 10 µM, first compound 0.316 µM",3.88%
same,"viability, T/C","second compound 10 µM, first compound 1 µM",2.23%
same,"viability, T/C","second compound 10 µM, first compound 3.16 µM",2.98%
same,"viability, T/C","second compound 10 µM, first compound 10 µM",1.91%
CC1(C)CCC(Nc2ncc(C(F)(F)F)c(-c3c[nH]c4c(P(C)(C)=O)c(C#N)ccc34)n2)CN1 (stereo unspecified) + CCn1c(-c2cc(N3CCN(C)CC3)cnc2C(C)OC)c2c3cc(ccc31)-c1csc(n1)CC(NC(=O)C1CC1C)C(=O)N1CCCC(N1)C(=O)OCC(C)(C)C2,IC50,second compound 0.000949 µM,< 0.949 nM
same,IC50,second compound 0.003 µM,< 0.949 nM
same,IC50,second compound 0.00949 µM,< 0.949 nM
same,IC50,second compound 0.03 µM,< 0.949 nM
same,IC50,second compound 0.0949 µM,< 0.949 nM
same,IC50,second compound 0.3 µM,< 0.949 nM
same,"viability, T/C","second compound 0.000949 µM, first compound 0.000949 µM",18.6%
same,"viability, T/C","second compound 0.000949 µM, first compound 0.003 µM",17.4%
same,"viability, T/C","second compound 0.000949 µM, first compound 0.00949 µM",15.6%
same,"viability, T/C","second compound 0.000949 µM, first compound 0.03 µM",18.6%
same,"viability, T/C","second compound 0.000949 µM, first compound 0.0949 µM",19.4%
same,"viability, T/C","second compound 0.000949 µM, first compound 0.3 µM",20.3%
same,"viability, T/C","second compound 0.003 µM, first compound 0.000949 µM",9.04%
same,"viability, T/C","second compound 0.003 µM, first compound 0.003 µM",8.93%
same,"viability, T/C","second compound 0.003 µM, first compound 0.00949 µM",9.61%
same,"viability, T/C","second compound 0.003 µM, first compound 0.03 µM",8.68%
same,"viability, T/C","second compound 0.003 µM, first compound 0.0949 µM",10.7%
same,"viability, T/C","second compound 0.003 µM, first compound 0.3 µM",11.1%
same,"viability, T/C","second compound 0.00949 µM, first compound 0.000949 µM",5.65%
same,"viability, T/C","second compound 0.00949 µM, first compound 0.003 µM",5.79%
same,"viability, T/C","second compound 0.00949 µM, first compound 0.00949 µM",5.79%
same,"viability, T/C","second compound 0.00949 µM, first compound 0.03 µM",6.44%
same,"viability, T/C","second compound 0.00949 µM, first compound 0.0949 µM",6.98%
same,"viability, T/C","second compound 0.00949 µM, first compound 0.3 µM",7.15%
same,"viability, T/C","second compound 0.03 µM, first compound 0.000949 µM",4.09%
same,"viability, T/C","second compound 0.03 µM, first compound 0.003 µM",4.19%
same,"viability, T/C","second compound 0.03 µM, first compound 0.00949 µM",4.86%
same,"viability, T/C","second compound 0.03 µM, first compound 0.03 µM",4.81%
same,"viability, T/C","second compound 0.03 µM, first compound 0.0949 µM",5.36%
same,"viability, T/C","second compound 0.03 µM, first compound 0.3 µM",5.18%
same,"viability, T/C","second compound 0.0949 µM, first compound 0.000949 µM",2.85%
same,"viability, T/C","second compound 0.0949 µM, first compound 0.003 µM",3.65%
same,"viability, T/C","second compound 0.0949 µM, first compound 0.00949 µM",4.21%
same,"viability, T/C","second compound 0.0949 µM, first compound 0.03 µM",4.25%
same,"viability, T/C","second compound 0.0949 µM, first compound 0.0949 µM",4.38%
same,"viability, T/C","second compound 0.0949 µM, first compound 0.3 µM",4.66%
same,"viability, T/C","second compound 0.3 µM, first compound 0.000949 µM",2.87%
same,"viability, T/C","second compound 0.3 µM, first compound 0.003 µM",2.91%
same,"viability, T/C","second compound 0.3 µM, first compound 0.00949 µM",3.44%
same,"viability, T/C","second compound 0.3 µM, first compound 0.03 µM",3.64%
same,"viability, T/C","second compound 0.3 µM, first compound 0.0949 µM",4.02%
same,"viability, T/C","second compound 0.3 µM, first compound 0.3 µM",3.88%
